The text below walks through data of US12479847B2 (DANA-FARBER CANCER INSTITUTE, INC., priority 2019, dated 2025).

Holding throughout (assay): KINOMEscan (ScanMAX) kinase profiling
Holding throughout (assay type): binding

Assay [1] concerns the target T1, panel of 468 kinases (Homo sapiens, UniProt Q15349).
T1 construct: purchased KINOMEscan (ScanMAX) service
The settings on record: 1 μM, read-out: % control.

The target of assay [2] is T2, panel of 468 kinases (Homo sapiens, UniProt Q16832).
T2 construct: purchased KINOMEscan (ScanMAX) service
T2 sequence (Q16832 22-855): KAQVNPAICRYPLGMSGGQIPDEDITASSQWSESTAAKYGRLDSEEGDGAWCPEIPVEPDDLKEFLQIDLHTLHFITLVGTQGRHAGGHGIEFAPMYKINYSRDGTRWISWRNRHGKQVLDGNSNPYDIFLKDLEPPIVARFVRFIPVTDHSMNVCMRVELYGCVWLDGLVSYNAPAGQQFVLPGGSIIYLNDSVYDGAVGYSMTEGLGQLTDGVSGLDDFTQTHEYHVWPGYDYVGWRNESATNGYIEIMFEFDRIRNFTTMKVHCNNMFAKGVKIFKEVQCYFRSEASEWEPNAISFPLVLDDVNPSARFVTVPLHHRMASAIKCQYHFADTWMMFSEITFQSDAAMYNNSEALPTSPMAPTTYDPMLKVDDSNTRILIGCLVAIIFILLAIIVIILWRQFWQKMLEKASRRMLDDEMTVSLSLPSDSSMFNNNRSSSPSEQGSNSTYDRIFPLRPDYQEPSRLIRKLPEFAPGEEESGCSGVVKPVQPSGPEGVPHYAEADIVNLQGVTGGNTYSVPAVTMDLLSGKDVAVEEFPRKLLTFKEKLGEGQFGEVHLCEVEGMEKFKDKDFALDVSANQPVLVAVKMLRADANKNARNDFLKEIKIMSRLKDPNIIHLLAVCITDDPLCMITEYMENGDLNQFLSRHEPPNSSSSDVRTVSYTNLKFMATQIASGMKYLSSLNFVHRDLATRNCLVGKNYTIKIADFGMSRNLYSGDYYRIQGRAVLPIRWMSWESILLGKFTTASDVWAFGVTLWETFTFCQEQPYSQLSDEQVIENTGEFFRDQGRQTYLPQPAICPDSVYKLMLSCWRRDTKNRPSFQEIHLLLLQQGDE
The settings on record: DDR2; 1 μM; read-out: % control.

The target in assay [3] is T3, panel of 468 kinases (Homo sapiens, UniProt O75116).
T3 construct: purchased KINOMEscan (ScanMAX) service
The settings on record: ROCK2; 1 μM; read-out: % control.

Assay [4] addresses T4, panel of 468 kinases (Homo sapiens, UniProt P08069).
T4 construct: purchased KINOMEscan (ScanMAX) service
The settings on record: IGF1R; 1 μM; read-out: % control.

Assay [5] deals with T5, panel of 468 kinases (Homo sapiens, UniProt P42685).
T5 construct: purchased KINOMEscan (ScanMAX) service
The settings on record: FRK; 1 μM; read-out: % control.

Assay [6] addresses T6, panel of 468 kinases (Homo sapiens, UniProt Q7KZI7).
T6 construct: purchased KINOMEscan (ScanMAX) service
The settings on record: MARK2; 1 μM; read-out: % control.

The target of assay [7] is T7, panel of 468 kinases (Homo sapiens, UniProt O43293).
T7 construct: purchased KINOMEscan (ScanMAX) service
The settings on record: DAPK3; 1 μM; read-out: % control.

The target in assay [8] is T8, panel of 468 kinases (Homo sapiens, UniProt O94768).
T8 construct: purchased KINOMEscan (ScanMAX) service
T8 sequence (O94768 1-372): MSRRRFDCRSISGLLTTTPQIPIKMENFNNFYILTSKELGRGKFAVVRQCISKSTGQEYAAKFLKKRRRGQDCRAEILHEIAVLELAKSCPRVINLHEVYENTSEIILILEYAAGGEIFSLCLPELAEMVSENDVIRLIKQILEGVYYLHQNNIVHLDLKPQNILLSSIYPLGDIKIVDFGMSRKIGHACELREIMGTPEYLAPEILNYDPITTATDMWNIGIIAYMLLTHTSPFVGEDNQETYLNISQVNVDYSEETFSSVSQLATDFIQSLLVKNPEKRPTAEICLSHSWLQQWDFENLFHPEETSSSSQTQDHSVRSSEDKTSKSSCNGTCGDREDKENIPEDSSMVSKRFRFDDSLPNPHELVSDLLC
The settings on record: DRAK2; 1 μM; read-out: % control.

Assay [9] addresses T9, panel of 468 kinases (Homo sapiens, UniProt Q9H2G2).
T9 construct: purchased KINOMEscan (ScanMAX) service
The settings on record: SLK; 1 μM; read-out: % control.

In assay [10] the target is T10, panel of 468 kinases (Homo sapiens, UniProt P27361).
T10 construct: purchased KINOMEscan (ScanMAX) service
The settings on record: ERK1; 1 μM; read-out: % control.

For assay [11], the target named is T11, panel of 468 kinases (Homo sapiens, UniProt O14730).
T11 construct: purchased KINOMEscan (ScanMAX) service
T11 sequence (O14730 1-519): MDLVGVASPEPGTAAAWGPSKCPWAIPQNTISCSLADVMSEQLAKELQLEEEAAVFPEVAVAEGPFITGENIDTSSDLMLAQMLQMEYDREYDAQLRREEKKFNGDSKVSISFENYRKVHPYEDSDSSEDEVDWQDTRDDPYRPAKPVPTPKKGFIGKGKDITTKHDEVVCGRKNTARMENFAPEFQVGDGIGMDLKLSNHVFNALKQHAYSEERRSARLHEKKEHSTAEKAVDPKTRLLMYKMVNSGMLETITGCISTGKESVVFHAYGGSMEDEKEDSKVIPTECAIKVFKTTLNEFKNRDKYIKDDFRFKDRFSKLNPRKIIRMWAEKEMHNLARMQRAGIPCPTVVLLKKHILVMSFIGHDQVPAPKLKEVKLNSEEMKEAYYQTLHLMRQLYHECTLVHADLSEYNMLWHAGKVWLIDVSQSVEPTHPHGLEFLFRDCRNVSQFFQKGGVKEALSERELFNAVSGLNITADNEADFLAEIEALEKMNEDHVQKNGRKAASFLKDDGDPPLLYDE
The settings on record: RIOK3; 1 μM; read-out: % control.

In assay [12] the target is T12, panel of 468 kinases (Homo sapiens, UniProt Q52WX2).
T12 construct: purchased KINOMEscan (ScanMAX) service
The settings on record: SBK1; 1 μM; read-out: % control.

Structures are written as SMILES. Where two headings read alike, the source gives them in different places.

T12 sequence (Q52WX2 whole entry): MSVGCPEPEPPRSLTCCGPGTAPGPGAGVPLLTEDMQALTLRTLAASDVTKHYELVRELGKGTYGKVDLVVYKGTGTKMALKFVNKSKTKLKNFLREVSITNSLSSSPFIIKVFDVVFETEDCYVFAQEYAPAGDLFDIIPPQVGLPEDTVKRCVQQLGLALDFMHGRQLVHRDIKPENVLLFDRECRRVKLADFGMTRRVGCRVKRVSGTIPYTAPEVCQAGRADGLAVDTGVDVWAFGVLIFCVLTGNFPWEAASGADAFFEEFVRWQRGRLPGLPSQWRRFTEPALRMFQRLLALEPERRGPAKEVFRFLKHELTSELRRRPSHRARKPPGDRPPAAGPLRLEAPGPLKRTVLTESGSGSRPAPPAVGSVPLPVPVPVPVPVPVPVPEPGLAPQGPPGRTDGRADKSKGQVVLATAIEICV
T4 sequence (P08069 31-1367): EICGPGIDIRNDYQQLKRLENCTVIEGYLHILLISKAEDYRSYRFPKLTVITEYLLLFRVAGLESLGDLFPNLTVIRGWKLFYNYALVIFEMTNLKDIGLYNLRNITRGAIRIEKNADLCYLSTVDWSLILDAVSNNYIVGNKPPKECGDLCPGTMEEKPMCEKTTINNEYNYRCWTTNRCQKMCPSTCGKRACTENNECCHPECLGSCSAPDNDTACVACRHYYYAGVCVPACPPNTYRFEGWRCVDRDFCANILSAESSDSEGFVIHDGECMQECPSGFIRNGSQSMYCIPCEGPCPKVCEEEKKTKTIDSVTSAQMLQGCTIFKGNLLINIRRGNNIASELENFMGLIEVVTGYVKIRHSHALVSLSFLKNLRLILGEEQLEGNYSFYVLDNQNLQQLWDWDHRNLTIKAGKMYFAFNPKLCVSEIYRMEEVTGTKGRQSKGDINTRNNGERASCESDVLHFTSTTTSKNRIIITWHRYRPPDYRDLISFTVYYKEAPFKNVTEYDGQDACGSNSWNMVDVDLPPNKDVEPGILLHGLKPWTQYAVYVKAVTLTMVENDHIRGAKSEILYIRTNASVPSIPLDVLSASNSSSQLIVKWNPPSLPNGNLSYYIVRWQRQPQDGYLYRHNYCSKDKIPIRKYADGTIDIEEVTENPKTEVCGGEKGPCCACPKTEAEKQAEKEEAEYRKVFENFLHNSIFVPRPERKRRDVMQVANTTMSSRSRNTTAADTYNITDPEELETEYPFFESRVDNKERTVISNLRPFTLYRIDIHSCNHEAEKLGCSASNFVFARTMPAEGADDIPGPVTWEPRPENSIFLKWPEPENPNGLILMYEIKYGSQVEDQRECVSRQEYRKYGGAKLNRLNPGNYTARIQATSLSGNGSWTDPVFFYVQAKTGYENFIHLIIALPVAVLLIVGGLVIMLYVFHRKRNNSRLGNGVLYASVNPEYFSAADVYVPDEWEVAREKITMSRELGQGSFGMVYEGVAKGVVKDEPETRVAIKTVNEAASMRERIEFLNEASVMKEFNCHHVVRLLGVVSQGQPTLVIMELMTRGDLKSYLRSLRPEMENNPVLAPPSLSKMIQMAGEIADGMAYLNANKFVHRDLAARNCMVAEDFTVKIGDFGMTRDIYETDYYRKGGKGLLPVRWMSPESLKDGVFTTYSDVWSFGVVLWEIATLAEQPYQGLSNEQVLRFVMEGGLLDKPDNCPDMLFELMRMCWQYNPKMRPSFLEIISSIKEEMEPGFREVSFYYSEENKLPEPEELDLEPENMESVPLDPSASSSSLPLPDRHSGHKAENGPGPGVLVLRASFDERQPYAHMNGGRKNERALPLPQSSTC
T1 sequence (Q15349 whole entry): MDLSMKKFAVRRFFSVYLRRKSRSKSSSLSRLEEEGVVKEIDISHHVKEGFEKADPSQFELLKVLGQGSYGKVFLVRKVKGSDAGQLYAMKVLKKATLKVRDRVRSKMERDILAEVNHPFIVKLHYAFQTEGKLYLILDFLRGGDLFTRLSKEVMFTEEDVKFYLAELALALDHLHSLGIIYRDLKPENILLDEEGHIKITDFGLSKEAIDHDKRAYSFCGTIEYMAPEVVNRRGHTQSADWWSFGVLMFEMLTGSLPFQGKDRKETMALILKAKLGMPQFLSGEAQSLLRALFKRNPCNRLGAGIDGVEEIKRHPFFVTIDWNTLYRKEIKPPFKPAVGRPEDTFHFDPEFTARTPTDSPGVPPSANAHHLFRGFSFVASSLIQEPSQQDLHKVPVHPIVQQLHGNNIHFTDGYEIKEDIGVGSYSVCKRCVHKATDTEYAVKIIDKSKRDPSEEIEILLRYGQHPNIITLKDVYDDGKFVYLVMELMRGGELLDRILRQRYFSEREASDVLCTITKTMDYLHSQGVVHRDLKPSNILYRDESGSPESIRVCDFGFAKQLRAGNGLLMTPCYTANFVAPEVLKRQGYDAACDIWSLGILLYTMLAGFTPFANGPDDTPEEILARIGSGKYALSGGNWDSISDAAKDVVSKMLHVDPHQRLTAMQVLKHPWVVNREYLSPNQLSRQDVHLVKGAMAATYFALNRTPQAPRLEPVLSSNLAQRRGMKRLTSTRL
T7 sequence (O43293 whole entry): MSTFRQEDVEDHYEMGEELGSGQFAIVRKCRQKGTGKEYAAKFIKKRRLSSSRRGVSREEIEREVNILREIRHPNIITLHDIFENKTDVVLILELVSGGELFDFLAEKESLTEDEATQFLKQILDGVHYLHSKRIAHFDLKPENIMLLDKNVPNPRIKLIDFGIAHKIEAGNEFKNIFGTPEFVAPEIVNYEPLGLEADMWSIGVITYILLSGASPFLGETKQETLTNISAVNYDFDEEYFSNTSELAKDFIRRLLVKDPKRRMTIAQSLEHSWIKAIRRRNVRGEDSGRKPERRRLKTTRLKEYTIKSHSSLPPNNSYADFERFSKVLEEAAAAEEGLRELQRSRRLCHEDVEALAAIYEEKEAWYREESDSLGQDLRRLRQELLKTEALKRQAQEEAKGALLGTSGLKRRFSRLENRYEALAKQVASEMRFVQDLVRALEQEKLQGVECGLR
T9 sequence (Q9H2G2 whole entry): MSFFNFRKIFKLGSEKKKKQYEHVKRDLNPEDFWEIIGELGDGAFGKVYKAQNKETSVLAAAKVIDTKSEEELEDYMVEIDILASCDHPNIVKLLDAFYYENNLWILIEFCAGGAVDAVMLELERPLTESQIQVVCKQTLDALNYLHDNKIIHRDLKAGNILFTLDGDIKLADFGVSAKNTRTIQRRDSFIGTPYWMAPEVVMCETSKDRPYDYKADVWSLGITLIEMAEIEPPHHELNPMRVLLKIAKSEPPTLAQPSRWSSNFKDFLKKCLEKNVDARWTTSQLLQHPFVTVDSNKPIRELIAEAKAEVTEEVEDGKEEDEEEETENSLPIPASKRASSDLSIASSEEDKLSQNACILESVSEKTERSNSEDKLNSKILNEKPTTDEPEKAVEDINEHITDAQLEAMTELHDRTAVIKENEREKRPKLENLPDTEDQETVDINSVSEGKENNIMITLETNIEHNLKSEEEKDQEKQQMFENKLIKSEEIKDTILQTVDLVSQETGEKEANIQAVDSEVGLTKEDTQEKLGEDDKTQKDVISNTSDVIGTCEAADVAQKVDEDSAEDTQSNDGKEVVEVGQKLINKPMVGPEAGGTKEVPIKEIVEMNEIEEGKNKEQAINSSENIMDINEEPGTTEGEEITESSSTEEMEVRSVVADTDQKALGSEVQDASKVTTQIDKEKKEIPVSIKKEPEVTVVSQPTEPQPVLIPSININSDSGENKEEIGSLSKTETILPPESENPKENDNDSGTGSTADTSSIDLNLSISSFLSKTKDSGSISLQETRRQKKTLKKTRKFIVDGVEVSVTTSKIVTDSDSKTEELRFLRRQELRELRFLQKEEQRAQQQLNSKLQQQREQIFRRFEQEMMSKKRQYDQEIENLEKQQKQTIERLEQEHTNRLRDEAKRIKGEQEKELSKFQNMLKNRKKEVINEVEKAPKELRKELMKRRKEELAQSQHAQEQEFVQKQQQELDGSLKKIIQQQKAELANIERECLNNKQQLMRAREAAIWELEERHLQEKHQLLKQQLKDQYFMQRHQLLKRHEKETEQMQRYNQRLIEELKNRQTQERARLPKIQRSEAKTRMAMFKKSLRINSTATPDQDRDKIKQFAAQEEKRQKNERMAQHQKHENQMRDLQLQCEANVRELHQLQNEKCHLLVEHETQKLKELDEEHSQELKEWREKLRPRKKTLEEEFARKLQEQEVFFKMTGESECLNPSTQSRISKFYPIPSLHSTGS
T5 sequence (P42685 whole entry): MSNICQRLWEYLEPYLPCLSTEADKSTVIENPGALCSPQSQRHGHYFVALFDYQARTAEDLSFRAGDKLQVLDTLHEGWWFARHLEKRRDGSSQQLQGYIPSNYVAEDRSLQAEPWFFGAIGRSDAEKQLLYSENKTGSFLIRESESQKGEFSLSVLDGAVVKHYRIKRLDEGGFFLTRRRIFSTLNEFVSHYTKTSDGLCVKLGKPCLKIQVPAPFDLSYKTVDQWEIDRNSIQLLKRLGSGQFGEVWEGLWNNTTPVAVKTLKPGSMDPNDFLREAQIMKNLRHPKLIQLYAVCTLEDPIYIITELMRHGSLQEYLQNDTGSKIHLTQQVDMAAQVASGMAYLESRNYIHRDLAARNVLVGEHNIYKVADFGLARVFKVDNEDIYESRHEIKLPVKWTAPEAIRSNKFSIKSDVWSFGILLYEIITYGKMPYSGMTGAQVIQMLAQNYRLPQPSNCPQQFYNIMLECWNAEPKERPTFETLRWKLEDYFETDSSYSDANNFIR
T10 sequence (P27361 whole entry): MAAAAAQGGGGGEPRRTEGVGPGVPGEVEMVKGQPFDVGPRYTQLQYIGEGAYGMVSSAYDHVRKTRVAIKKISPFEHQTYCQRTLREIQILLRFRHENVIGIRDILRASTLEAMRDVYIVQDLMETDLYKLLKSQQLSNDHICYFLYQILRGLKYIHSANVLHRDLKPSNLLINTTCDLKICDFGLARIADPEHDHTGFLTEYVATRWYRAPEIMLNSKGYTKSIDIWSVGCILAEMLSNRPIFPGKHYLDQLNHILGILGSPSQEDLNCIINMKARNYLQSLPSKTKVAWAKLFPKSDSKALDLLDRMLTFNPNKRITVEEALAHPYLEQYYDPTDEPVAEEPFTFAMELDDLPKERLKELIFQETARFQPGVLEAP

For `CNc1nc(Nc2ccc(S(=O)(=O)N3CCC(N4CCOCC4)CC3)cc2OC)nc2[nH]cc(Cl)c12` [Compound 12, 5-chloro-N2-(2-methoxy-4-((4-morpholinopiperidin-1-yl)sulfonyl)phenyl)-N4-methyl-7H-pyrrolo[2,3-d]pyrimidine-2,4-diamine], the remaining binding at 1 µM at panel of 468 kinases [1] (RSK3(Kin.Dom.1-N-terminal)) stood at 100%; on panel of 468 kinases [1] (RSK3(Kin.Dom.2-C-terminal)), 70%; on panel of 468 kinases [2] it was 84%; at panel of 468 kinases [3] it was 86%; at panel of 468 kinases [4], 100%; at panel of 468 kinases [5], 100%. Also, the remaining binding at 1 µM at panel of 468 kinases [6] amounted to 100%; on panel of 468 kinases [7], 35%; at panel of 468 kinases [8], 74%; at panel of 468 kinases [9], 100%; on panel of 468 kinases [10] it was 100%; at panel of 468 kinases [11], 89%. For the same compound, the remaining binding at 1 µM at panel of 468 kinases [12] came to 77%.

With `CNc1nc(Nc2ccc(P3(=O)CCN(C4CCOCC4)CC3)cc2OC)nc2[nH]cc(Cl)c12` [Compound 77, 4-(4-((5-chloro-4-(methylamino)-7H-pyrrolo[2,3-d]pyrimidin-2-yl)amino)-3-methoxyphenyl)-1-(tetrahydro-2H-pyran-4-yl)-1,4-azaphosphinane 4-oxide], the remaining binding at 1 µM at panel of 468 kinases [1] (RSK3(Kin.Dom.1-N-terminal)) is 100%; at panel of 468 kinases [1] (RSK3(Kin.Dom.2-C-terminal)) it was 20%; at panel of 468 kinases [2], 84%; on panel of 468 kinases [3] it was 96%; at panel of 468 kinases [4], 100%; on panel of 468 kinases [5], 100%. The remaining binding at 1 µM on panel of 468 kinases [6] is 100%; at panel of 468 kinases [7], 9.9%; on panel of 468 kinases [8], 39%; on panel of 468 kinases [9], 100%; at panel of 468 kinases [10] it was 100%; on panel of 468 kinases [11], 88%. The remaining binding at 1 µM on panel of 468 kinases [12] was determined as 68%.

With `CNc1nc(Nc2ccc(C(=O)N3CCC(N4CCOCC4)CC3)c3c2OCO3)nc2[nH]cc(Cl)c12` [Compound 75, (7-((5-chloro-4-(methylamino)-7H-pyrrolo[2,3-d]pyrimidin-2-yl)amino)benzo[d][1,3]dioxol-4-yl)(4-morpholinopiperidin-1-yl)methanone], the remaining binding at 1 µM at panel of 468 kinases [1] (RSK3(Kin.Dom.1-N-terminal)) amounted to 100%; on panel of 468 kinases [1] (RSK3(Kin.Dom.2-C-terminal)), 57%; at panel of 468 kinases [2] it was 93%; at panel of 468 kinases [3], 35%; on panel of 468 kinases [4] it was 89%; on panel of 468 kinases [5] it was 100%. Besides, the remaining binding at 1 µM on panel of 468 kinases [6] is 100%; at panel of 468 kinases [7], 16%; at panel of 468 kinases [8], 3.9%; on panel of 468 kinases [9], 100%; at panel of 468 kinases [10], 100%; on panel of 468 kinases [11], 28%. Moreover, the remaining binding at 1 µM at panel of 468 kinases [12] came out at 64%.
